Assay type in all cases: biochemical
The target in one assay is T1, HDAC6 (Homo sapiens, UniProt Q9UBN7).
T1 sequence (Q9UBN7 1-1215): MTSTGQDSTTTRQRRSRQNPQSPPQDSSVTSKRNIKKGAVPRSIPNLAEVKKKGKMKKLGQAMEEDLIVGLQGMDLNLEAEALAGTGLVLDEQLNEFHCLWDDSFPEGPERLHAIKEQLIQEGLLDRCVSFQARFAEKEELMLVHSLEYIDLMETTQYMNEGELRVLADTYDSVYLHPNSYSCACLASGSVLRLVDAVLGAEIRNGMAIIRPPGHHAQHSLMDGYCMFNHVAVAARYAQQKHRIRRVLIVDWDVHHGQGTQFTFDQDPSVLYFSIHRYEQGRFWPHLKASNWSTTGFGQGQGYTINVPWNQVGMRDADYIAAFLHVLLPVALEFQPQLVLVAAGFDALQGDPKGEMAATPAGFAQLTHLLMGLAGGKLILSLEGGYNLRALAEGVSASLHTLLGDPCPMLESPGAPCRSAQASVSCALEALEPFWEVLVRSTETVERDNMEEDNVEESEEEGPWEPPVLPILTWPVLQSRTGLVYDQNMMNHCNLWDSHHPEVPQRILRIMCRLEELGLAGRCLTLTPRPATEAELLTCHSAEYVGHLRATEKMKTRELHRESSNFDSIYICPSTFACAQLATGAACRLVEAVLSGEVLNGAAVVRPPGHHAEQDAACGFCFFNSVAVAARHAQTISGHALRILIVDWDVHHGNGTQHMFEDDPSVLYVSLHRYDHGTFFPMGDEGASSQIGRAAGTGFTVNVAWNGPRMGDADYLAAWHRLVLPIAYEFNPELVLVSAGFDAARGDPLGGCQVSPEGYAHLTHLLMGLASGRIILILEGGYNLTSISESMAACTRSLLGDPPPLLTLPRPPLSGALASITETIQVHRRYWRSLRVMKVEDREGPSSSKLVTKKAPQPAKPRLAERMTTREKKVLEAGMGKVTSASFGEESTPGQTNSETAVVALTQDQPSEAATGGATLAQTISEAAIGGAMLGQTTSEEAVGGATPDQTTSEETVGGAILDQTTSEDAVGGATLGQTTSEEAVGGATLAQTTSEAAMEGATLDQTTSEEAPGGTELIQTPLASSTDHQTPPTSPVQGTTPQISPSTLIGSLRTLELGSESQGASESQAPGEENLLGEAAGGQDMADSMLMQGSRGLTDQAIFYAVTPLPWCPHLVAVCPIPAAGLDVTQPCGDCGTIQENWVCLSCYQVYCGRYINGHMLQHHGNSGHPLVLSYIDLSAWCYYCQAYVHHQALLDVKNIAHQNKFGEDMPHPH
The assay is described as follows: HDAC activity assay, HDAC6.

The next assay deals with HDAC9 (Homo sapiens, UniProt Q9UKV0). The assay is described as follows: HDAC activity assay, HDAC9.
The next assay concerns the target HDAC4 (Homo sapiens, UniProt P56524). The assay is described as follows: HDAC activity assay, HDAC4.
Another assay concerns the target T2, HDAC7 (Homo sapiens, UniProt Q8WUI4).
T2 sequence (Q8WUI4 1-952): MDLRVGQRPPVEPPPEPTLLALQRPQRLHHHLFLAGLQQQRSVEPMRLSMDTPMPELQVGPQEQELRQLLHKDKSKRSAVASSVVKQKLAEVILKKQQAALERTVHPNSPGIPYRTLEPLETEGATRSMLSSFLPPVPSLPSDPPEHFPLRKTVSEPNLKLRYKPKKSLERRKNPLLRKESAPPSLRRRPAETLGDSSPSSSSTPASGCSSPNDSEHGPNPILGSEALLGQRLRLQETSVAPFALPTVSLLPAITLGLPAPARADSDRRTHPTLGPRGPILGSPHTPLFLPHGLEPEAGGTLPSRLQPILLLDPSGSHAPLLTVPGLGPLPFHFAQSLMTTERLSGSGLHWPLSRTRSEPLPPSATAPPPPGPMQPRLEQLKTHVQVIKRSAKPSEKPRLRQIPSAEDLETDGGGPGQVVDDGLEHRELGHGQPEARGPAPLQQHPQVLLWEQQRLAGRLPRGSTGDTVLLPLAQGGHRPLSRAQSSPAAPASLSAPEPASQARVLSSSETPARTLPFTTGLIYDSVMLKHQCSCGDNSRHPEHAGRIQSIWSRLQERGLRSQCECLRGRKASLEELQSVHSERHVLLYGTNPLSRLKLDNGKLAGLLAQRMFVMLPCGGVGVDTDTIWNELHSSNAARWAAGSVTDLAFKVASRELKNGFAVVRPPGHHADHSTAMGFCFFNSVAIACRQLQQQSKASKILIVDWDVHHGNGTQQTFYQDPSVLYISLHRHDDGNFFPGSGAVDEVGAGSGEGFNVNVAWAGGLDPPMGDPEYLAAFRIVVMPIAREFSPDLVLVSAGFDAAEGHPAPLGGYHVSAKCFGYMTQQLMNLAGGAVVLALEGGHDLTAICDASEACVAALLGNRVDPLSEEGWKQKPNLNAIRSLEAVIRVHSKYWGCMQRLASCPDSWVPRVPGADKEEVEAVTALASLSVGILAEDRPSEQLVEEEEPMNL
The assay is described as follows: HDAC activity assay, HDAC7.

Chain of HDAC4 (P56524 whole entry, species assumed): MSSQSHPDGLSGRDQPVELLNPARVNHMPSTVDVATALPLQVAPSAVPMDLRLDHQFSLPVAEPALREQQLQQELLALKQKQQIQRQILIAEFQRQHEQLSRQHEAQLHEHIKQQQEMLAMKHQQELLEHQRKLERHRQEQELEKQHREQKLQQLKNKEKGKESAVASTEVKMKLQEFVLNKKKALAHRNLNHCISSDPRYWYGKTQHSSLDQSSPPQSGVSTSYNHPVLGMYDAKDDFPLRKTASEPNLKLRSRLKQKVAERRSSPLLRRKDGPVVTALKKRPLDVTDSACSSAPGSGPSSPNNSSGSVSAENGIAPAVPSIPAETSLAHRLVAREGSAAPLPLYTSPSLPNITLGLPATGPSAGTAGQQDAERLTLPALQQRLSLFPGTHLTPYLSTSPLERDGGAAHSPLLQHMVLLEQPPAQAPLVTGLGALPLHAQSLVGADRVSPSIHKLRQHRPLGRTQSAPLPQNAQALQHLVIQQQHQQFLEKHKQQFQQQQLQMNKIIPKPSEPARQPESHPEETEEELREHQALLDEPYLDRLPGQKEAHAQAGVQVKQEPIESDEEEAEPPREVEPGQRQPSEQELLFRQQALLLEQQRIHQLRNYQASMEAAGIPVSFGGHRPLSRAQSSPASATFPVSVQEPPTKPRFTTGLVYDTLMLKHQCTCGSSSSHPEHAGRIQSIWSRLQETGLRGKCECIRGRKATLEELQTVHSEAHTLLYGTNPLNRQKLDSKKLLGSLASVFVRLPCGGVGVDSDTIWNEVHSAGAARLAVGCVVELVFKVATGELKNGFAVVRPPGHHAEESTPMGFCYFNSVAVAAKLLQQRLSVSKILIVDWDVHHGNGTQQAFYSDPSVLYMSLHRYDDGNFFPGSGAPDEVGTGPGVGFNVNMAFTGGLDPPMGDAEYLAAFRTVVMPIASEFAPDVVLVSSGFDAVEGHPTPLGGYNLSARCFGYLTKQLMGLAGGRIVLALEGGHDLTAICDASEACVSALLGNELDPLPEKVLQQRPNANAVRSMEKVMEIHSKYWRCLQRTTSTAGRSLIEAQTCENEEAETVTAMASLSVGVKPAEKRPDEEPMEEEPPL
Chain of HDAC9 (Q9UKV0 whole entry): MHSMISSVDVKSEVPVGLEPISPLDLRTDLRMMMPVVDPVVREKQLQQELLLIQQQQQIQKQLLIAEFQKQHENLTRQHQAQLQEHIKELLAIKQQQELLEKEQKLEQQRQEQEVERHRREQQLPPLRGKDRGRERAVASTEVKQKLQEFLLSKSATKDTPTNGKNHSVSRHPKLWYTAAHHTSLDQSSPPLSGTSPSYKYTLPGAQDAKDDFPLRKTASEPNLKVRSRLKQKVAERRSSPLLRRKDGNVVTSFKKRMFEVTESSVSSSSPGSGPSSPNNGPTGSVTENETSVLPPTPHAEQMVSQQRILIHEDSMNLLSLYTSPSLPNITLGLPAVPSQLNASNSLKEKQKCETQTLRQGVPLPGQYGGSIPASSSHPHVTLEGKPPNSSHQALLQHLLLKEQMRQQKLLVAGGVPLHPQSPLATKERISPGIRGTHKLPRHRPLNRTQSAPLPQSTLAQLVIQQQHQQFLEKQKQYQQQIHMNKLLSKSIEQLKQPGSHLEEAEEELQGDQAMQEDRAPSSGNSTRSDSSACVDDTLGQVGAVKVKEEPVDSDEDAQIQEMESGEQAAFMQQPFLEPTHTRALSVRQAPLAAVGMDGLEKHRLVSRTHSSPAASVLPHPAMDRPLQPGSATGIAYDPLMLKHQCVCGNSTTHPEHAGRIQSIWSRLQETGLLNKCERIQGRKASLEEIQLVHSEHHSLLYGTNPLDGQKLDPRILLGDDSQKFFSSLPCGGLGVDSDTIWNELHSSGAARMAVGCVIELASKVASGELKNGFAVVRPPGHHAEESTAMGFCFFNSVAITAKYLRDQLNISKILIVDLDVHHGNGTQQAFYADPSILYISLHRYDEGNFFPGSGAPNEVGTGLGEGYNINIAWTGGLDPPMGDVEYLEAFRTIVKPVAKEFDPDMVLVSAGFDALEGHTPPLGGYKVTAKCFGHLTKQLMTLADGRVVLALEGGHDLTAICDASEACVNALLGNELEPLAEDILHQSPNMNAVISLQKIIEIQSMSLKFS

Regarding `O=C(NO)c1ccc(CN2c3ccccc3Oc3ccccc32)cc1` [Compound 7a, N-Hydroxy-4-[(10H-phenoxazin-10-yl)methyl]benzamide], the 50% inhibitory concentration (IC50) was 17 ± 3 nM against HDAC6, 2200 ± 10 nM against HDAC9, 4320 ± 110 nM against HDAC4 and 790 ± 30 nM against HDAC7.
Consider `NC(=O)c1ccc2c(c1)Oc1ccccc1N2Cc1ccc(C(=O)NO)cc1` [Compound 7e, N-Hydroxy-4-[(3-carbamoyl-10H-phenoxazin-10-yl)methyl]benzamide], for which the IC50 against HDAC6 turned out to be 8 nM; against HDAC9 it was 1040 ± 200 nM; on HDAC4, 1410 ± 180 nM; at HDAC7, 520 ± 10 nM.
Regarding `O=C(NO)c1ccc(CN2c3ccccc3Oc3ccc(C(=O)Nc4ccccc4)cc32)cc1` [Compound 12b, N-Hydroxy-4-[(2-phenylcarbamoylphenoxazin-10-yl)methyl]benzamide], the 50% inhibitory concentration (IC50) stood at 46 ± 2 nM at HDAC6, 3490 ± 700 nM at HDAC9, 3660 ± 220 nM at HDAC4 and 2260 ± 10 nM at HDAC7.
As to `O=C(NO)c1ccc(CN2c3ccccc3Oc3cc(C(=O)Nc4ccc(C(=O)c5ccccc5)cc4)ccc32)cc1` [Compound 12c, N-Hydroxy-4-{[3–(4-benzoylphenyl)carbamoyl-phenoxazin-10-yl]methyl}benzamide], the half-inhibitory concentration (IC50) against HDAC6 came out at 74.8 ± 2 nM; at HDAC9, 15200 ± 500 nM; on HDAC4 it was 2070 ± 140 nM; against HDAC7 it was 460 ± 20 nM.
For `O=C(NO)c1ccc(CN2c3ccccc3Oc3cc(C(=O)Nc4ccccc4)ccc32)cc1` [Compound 12d, N-Hydroxy-4-[(3-phenylcarbamoylphenoxazin-10-yl)methyl]benzamide], the IC50 was 43.1 ± 3 nM against HDAC6, 3640 ± 60 nM at HDAC9, 2940 ± 520 nM against HDAC4 and 1580 ± 300 nM at HDAC7.
Regarding `N#Cc1ccc2c(c1)Oc1ccccc1N2Cc1ccc(C(=O)NO)cc1` [Compound 16, N-Hydroxy-4-[(3-cyano-10H-phenoxazin-10-yl)methyl]benzamide], the IC50 against HDAC6 is 20 nM; against HDAC9, 4080 ± 200 nM; against HDAC4, 3230 ± 590 nM; against HDAC7, 1220 ± 320 nM.
On to `O=C(NO)c1ccc(CN2c3ccccc3Oc3cc(Br)ccc32)cc1` [Compound 18, N-Hydroxy-4-[(3-bromo-10H-phenoxazin-10-yl)methyl]benzamide], for which the concentration for half-maximal inhibition (IC50) against HDAC6 came out at 15 nM; on HDAC9, 1560 ± 190 nM; at HDAC4, 3180 ± 330 nM; at HDAC7, 1750 ± 10 nM.
Take `O=C(NO)c1ccc(CN2c3ccccc3Oc3cc(-c4ccccc4)ccc32)cc1` [Compound 20, N-Hydroxy-4-[(3-phenyl-10H-phenoxazin-10-yl)methyl]benzamide]: the concentration for half-maximal inhibition (IC50) amounted to 23 ± 3 nM against HDAC6, 6320 ± 2060 nM against HDAC9, 8060 ± 210 nM against HDAC4 and 5120 ± 20 nM on HDAC7.

The record behind these values is paper PMC10190190 (Journal of Enzyme Inhibition and Medicinal Chemistry, 2023).
